Laboratory results as given in patent US9772334B2, “Inflammatory bowel disease markers and therapies for colitis-associated intestinal fibrosis” (THE REGENTS OF THE UNIVERSITY OF CALIFORNIA, priority 2012, dated 2017).
Entries after “also recorded” stand apart in the source; their conditions may differ.

How the values were obtained:
[1] = tested on: TNFα expression in Raw264.7 macrophages; assay: PAMP induced TNFα expression in Raw264.7 macrophages; assay type: cell-based, mouse; details: for LPS induced TNFα expression under IGF-1R inhibition: IGF-1R inhibitor 10 μM pretreatment 30 minutes, LPS 0.1 μg/ml
Procedure: (§1) To identify the anti-inflammatory mechanism of cathelicidin, human PBMCs and mouse macrophages to were exposed to PAMP signals (LPS and E. coli DNA) in the presence of cathelicidin LL-37 or mCRAMP (1-10 μM).

[2] = tested on: CCD-18Co fibroblasts; assay: β-tubulin expression and tubulin distribution in CCD-18Co fibroblasts; assay type: cell-based, human; details: for tubulin distribution (tubulin tracker): 10 μM, 24 hours
[3] = tested on: human colonic CCD-18Co fibroblasts; assay: TGF-β1 and IGF-1 induced collagen (COL1A2) expression in CCD-18Co fibroblasts; assay type: cell-based
Excerpt: Collagen (COL1A2) and total ERK protein expression was detected by Western blot analyses and quantitative image densitometry.

[4] = tested on: DSS mediated colitis; assay: DSS mediated colitis in mice, intraperitoneal sodium butyrate; assay type: in vivo
Excerpt: FIGS. 15A-15D show endogenous cathelicidin induction by sodium butyrate ameliorated DSS mediated colitis in mice. FIG. 15A is an illustration of the administration of DSS and/or sodium butyrate to mCRAMP deficient (Camp^−/−) and wild-type mice (i.e., the experimental plan).
(§2) FIGS. 16A-16F show sodium butyrate inhibited colonic TNFα expression but not colonic microflora load. […] The decrease of TNFα levels in Camp^−/− mice was minimized (drop by 4 pg/μg protein), compared to wild-type mice (drop by 6 pg/μg protein). […] All experiments are representative of 3 independent experiments.
To investigate the role of endogenous cathelicidin induction in the amelioration of acute colitis, mCRAMP deficient (Camp^−/−) and wild-type mice were administered with DSS and/or sodium butyrate as illustrated in FIG. 15A. DSS colitis led to significant tissue damages (FIG. 15C) with body weight loss (FIG. 15B) and increased histology score (FIG. 15C).

[5] = tested on: Raw264.7 macrophages; assay: Camp mRNA expression in Raw264.7 macrophages; assay type: cell-based, mouse; details: 5 mM; 6 and 24 hours; serum starved
[6] = tested on: human colonic epithelial NCM460 cells; assay: Cathelicidin protein level in conditioned media of NCM460 cells; assay type: cell-based; details: 5 mM; 16 hours; serum starved
Excerpt: as §2

[7] = tested on: UC disease activity; details: humans; Vernia et al. 2000; cited from earlier work
[8] = tested on: DSS mediated colitis; details: animal models; Vieira et al. 2011; cited from earlier work
[9] = tested on: human primary colonic fibroblasts; assay: TGF-β1 and IGF-1 induced COL1A2 mRNA expression in human primary colonic fibroblasts; assay type: cell-based; details: LL-37 5-10 μM; 24 hours; p=0.0108 and p=0.0049; concentration dependent
Procedure: Camp mRNA in Camp^−/− mice was undetectable. […] Collagen (COL1A2) and total ERK protein expression was detected by Western blot analyses and quantitative image densitometry. […] TGF-β1 and IGF-1 induced COL1A2 mRNA expression in colonic fibroblasts (P=0.049) was inhibited by LL-37 (5-10 μM, p=0.001) in concentration dependent manner. […] TGF-β1 and IGF-1 induced COL1A2 mRNA expression in colonic fibroblasts (P=0.0233) was inhibited by LL-37 (5-10 μM, p=0.0108 and p=0.0049) in concentration dependent manner. All experiments are representative of 3 independent experiments.

[10] = tested on: CCD-18Co; assay: Cell migration of CCD-18Co in modified Boyden chamber; assay type: cell-based, human; details: LL-37 0-10 μM; 37° C. for 8 hours
Procedure: Fibroblasts accumulated in the mucosal and submucosal locations as collagen deposition. […] Three different locations (3 separate images) per sample were counted. […] Cell migration was not affected by LL-37 (0-10 μM). Results are representative of 3 independent experiments.

[11] = tested on: TNFα expression in human PBMCs; assay: PAMP induced TNFα protein expression in human PBMCs; assay type: cell-based; details: 16 hours
Procedure: as §1

[12] = tested on: TNFα expression in fresh human colonic biopsies; assay: LPS induced TNFα protein expression in fresh human colonic biopsies; assay type: cell-based; details: LL-37 10 μM; LPS 0.1 μg/ml; 16 hours
Procedure: Human intestinal biopsies were obtained from normal patients, UC patients and CD patients after informed consent in accordance with procedures established by the Cedars-Sinai Institutional Review Board, IRBs 3358 and 23705 and UCLA Institutional Review Board IRB 11-001527. Baseline characteristics were outlined in FIG. 12B. Some fresh biopsies were frozen until homogenization. Some fresh colonic biopsies were cut into ˜3×3 mm pieces and incubated in serum free DMEM with 1% penicillin/streptomycin (Invitrogen) and exposed to LPS and/or LL-37.

[13] = tested on: NCM460 colonocytes; assay: Apoptosis (cleaved PARP) in NCM460 colonocytes; assay type: cell-based, human; details: LL-37 10 μM; proinflammatory cytokine cocktail or TNFα 10 ng/ml; 24 hours
Procedure: NCM460 cells were treated with proinflammatory cytokines cocktail or TNFα (10 ng/ml) with or without LL-37 (10 μM) for 24 hours. Apoptosis signaling molecule cleaved PARP was determined by Western blot and quantification. […] All experiments are representative of 3 independent experiments.

[14] = tested on: Akt and ERK phosphorylation in CCD-18Co fibroblasts; assay: Akt and ERK phosphorylation in CCD-18Co fibroblasts (Western blot); details: 30 minutes, concentration dependent
[15] = inhibitor 10 μM pretreatment 30 minutes, 72 hours, p=0.0005

In the case of `N#C/C(=C\c1ccc(O)c(O)c1)C(=O)c1ccc(O)c(O)c1` [AG538], the “LPS induced TNFα expression under IGF-1R inhibition” value ([1]; 16 hours) is reported as “not affected”.

For `N#C/C(=C\c1ccc2oc(=O)[nH]c2c1)C(=O)c1ccc(O)c(O)c1` [AGL2263], the “LPS induced TNFα expression under IGF-1R inhibition” value ([1]; 16 hours) was “not affected”.

For `CN([C@@H](Cc1ccc(OS(=O)(=O)c2cccc3cnccc23)cc1)C(=O)N1CCN(c2ccccc2)CC1)S(=O)(=O)c1cccc2cnccc12` [KN62], the “effect on the anti-inflammatory effect of cathelicidin against LPS” value ([1]; antagonist 10 μM pretreatment 30 minutes, mCRAMP 10 μM, 16 hours) was “did not alter the anti-inflammatory effect of cathelicidin”.

In the case of `COc1cccc(-c2cc(=O)c3ccccc3o2)c1N` [PD98059], the “involvement in the LL-37 mediated inhibition of β-tubulin expression” value ([2]; inhibitor 10 μM pretreatment 30 minutes, LL-37 10 μM, 72 hours) is reported as “not involved”.

With `N#CC(=C(/N)Sc1ccccc1N)/C(C#N)=C(\N)Sc1ccccc1N` [U0126] the “LPS induced TNFα expression” value [1] was “inhibited; also recorded: suppressed LPS induced TNFα expression”.

For `C=C1[C@@H](C)[C@H]2[C@H](Cc3ccccc3)NC(=O)[C@]23OC(=O)/C=C/[C@H](O)CCC[C@@H](C)C/C=C/[C@H]3[C@@H]1O` [cytochalasin B], the “TGF-β1 and IGF-1 induced COL1A2 expression” value [3, 15] was “affected”, the “tubulin distribution (tubulin tracker)” value [2] was “shrunk tubulin network in cells” and the “TGF-β1 and IGF-1 induced β-tubulin expression” value [2, 15] was “affected”.

For `CCCC(=O)[O-].[Na+]` [sodium butyrate], the “decrease of colonic TNFα levels” value ([4]; Camp−/− mice) was 21 % reduction, the “drop of colonic TNFα levels” value ([4]; Camp−/− mice) was 4 pg/μg protein and the “colonic microflora load (16S expression, PCR)” value ([4]; DSS exposed mice) was “did not cause significant change; also recorded: did not alter colonic 16S expression”. For the same compound, the “colonic Camp mRNA expression” value ([4]; DSS treated mice) was “significantly induced; also recorded: further augmented”, the “colonic mCRAMP protein expression (Western blot)” value ([4]; DSS treated wild-type mice) was “significantly induced; also recorded: increased colonic mCRAMP protein expression” and the “colonic TNFα levels” value ([4]; both wild-type and Camp−/− mice, p=0.04) was “significantly reduced colonic TNFα levels”. The “decrease of colonic TNFα levels” value ([4]; wild-type mice) was 40 % reduction, the “drop of colonic TNFα levels” value ([4]; wild-type mice) was 6 pg/μg protein and the histology score ([4]; wild-type mice, intraperitoneal) was “significant decrease of histology score”. For the same compound, the “Camp mRNA expression” value [5] was “significantly increased Camp mRNA expression”, the “cathelicidin protein level in conditioned media” value [6] was “significantly increased” and the “clinical UC disease activity” value [7] was “reduce clinical UC disease activity”. The DSS mediated colitis [8] was “reduce”.

For “LL-37 (LLGDFFRKSKEKIGKEFKRIVQRIKDFLRNLVPRTES)”, the “TGF-β1 and IGF-1 induced COL1A2 expression (Western blot, densitometry)” value ([3]; 10 μM LL-37, TGF-β1 50 ng/ml and IGF-1 10 ng/ml, 48 hours, p=0.0001) was “significantly reduces; also recorded: reduced”, the “TGF-β1 and IGF-1 induced COL1A2 mRNA expression” value ([3]; LL-37 5-10 μM, 24 hours, p=0.001, concentration dependent) was “significantly reduces; also recorded: inhibited” and the “TGF-β1 and IGF-1 induced COL1A2 mRNA expression” value [9] was “inhibited”. For the same compound, the “tubulin distribution (tubulin tracker)” value [2] was “shrunk the tubulin network”, the β-tubulin expression ([2]; LL-37 10 μM, 72 hours) was “inhibition” and the cell migration [10] was “not affected”. The “LPS induced TNFα protein expression in conditioned media” value ([11]; LL-37 10 μM, LPS 0.1 μg/ml) was “significantly reduced”, the “E. coli DNA induced TNFα expression” value ([11]; LL-37 1-10 μM, E. coli DNA 0.5 μg/ml) was “no inhibitory effect” and the “LPS induced TNFα protein expression in conditioned media” value [12] was “almost abolished”. For the same compound, the “apoptosis (cleaved PARP, Western blot)” value [13] was “failed to reverse PARP cleavage; also recorded: did not affect apoptosis”, the ERK phosphorylation ([14]; LL-37 up to 10 μM) was “significantly induced” and the Akt phosphorylation [14] was “significantly induced”.

For “mouse IGF-1: mouse insulin like growth factor-1”, the “effect on the mCRAMP mediated inhibition of LPS induced TNFα secretion” value ([1]; mouse IGF-1 80 pg/ml pretreatment 30 minutes, mCRAMP 10 μM, 16 hours) was “reversed the mCRAMP mediated inhibition”.

With pertussis toxin the “effect on the inhibitory effect of cathelicidin against LPS induced TNFα expression” value ([1]; pertussis toxin 500 ng/ml pretreatment overnight, mCRAMP 1-10 μM, 16 hours) was “reversed; also recorded: revered”.
